For three compounds, IC50 results are on record in BindingDB's records for patent US20230382911 (Hoffmann-La Roche, 2023).

S-adenosylmethionine synthase isoform type-2, sequence (P31153 whole entry, canonical isoform): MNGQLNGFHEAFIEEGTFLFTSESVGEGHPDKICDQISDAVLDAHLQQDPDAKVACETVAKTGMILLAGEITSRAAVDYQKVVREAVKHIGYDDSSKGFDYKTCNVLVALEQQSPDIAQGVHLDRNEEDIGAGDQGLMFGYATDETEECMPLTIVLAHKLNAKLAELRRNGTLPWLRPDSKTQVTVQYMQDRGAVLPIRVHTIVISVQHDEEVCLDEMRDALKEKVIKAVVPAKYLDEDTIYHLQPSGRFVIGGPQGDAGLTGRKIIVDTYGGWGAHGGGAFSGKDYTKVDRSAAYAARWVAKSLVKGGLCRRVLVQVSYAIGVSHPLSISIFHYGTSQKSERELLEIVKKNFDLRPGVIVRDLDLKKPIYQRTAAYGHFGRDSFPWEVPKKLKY

This assay addresses S-adenosylmethionine synthase isoform type-2 (Homo sapiens, UniProt P31153). Kind of assay: Measurement of Mat2A inhibition is performed in 384 well format absorbance-based assay. The protocol:
Recombinant human Mat2a (12.5 nM) and serial diluted compounds in DMSO (range of concentrations from 10 μM to […]) or controls (DMSO) are incubated for 15 minutes at room temperature (RT) in assay buffer containing 50 mM HEPES pH 7.5, 50 mM KCl, 50 mM MgCl2, 0.01% Tween 20 and 10 mM DTT. The reaction is initiated by the addition of the combined substrates ATP and Methionine, each at a final concentration of 100 μM. Final assay condition are 12.5 nM Mat2A, 100 μM ATP and Methionine Substrates and 2% DMSO. After 120 minutes of incubation at RT, the reaction is stopped by the addition of Biomol Green. The absorbance signal is measured at λ=635 nm with a multiplate reader (BMG Pherastar reader or equivalent) after 30 min of equilibration at RT.
As for `COc1ccccc1C(=O)n1nc(N)c2cc(F)c(N3CCCC3)nc21` [US20230382911, Example 11], inhibition was half-maximal at 66 nM (IC50).

`Cc1ccccc1C(=O)n1nc(N)c2ccc([C@H]3[C@H](C)[C@@H]3C)nc21` [US20230382911, Example 43]: the IC50 (usually the point on the concentration scale where inhibition reaches its midpoint) is 35 nM.

As for `COc1ccccc1C(=O)n1nc(N)c2ccc([C@H]3[C@H](C)[C@@H]3C)nc21` [US20230382911, Example 44], it took 13 nM to reach half-maximal inhibition (IC50).
